One assay deals with A549 cells, pERK. Put plainly: Inhibition of KRas phosphorylation of ERK (Cisbio HTRF Advanced pERK assay). The assay is classed as cell-based. Conditions: Homo sapiens, 3 hrs, read-out: Inhibition (HTRF IC50 nM) of KRas-mediated Phosphorylation of ERK, A549. The essentials:
(§1)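 Compound effect on ERK phosphorylation is measured after 3 h exposure of cells, seeded the previous day in RPMI with 10% FBS, to ten 3-fold dilutions starting at 10 uM. Lysates are probed by HTRF for pERK, with trametinib at 0.2 uM defining the minimum signal.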

The test system of another assay is PSN1 cells, pERK. Described as above. Format: cell-based. Conditions: Homo sapiens, PSN1, 3 h, read-out: Inhibition (HTRF IC50 nM) of KRas-mediated Phosphorylation of ERK, PSN1. The essentials:
as §1

Another assay deals with H460 cells, pERK. Described as above. The assay is classed as cell-based. Conditions: Homo sapiens, NCI-H460, 3 hrs, read-out: Inhibition (HTRF IC50 nM) of KRas-mediated Phosphorylation of ERK, H460. The essentials: as §1
Another assay relates to HCT116 cells, pERK. Described as above. Format: cell-based. Conditions: Homo sapiens, HCT-116, 3 hrs, read-out: Inhibition (HTRF IC50 nM) of KRas-mediated Phosphorylation of ERK, HCT116. The essentials:
as §1

A further assay relates to ASPC1 cells, pERK. The description is as above. The assay is classed as cell-based. Conditions: Homo sapiens, ASPC1, 3 h, AsPC-1 cells, read-out: Inhibition (HTRF IC50 nM) of KRas-mediated Phosphorylation of ERK, AsPC-1. The essentials: as §1
In the next assay the test system is H727 cells, pERK. Described as above. Format: cell-based. Conditions: Homo sapiens, NCI-H727, 3 h, read-out: Inhibition (HTRF IC50 nM) of KRas-mediated Phosphorylation of ERK, H727. The essentials: as §1
The next assay relates to MKN1 cells, pERK. The description is as above. Format: cell-based. Conditions: Homo sapiens, MKN-1, 3 h, read-out: Inhibition (HTRF IC50 nM) of KRas-mediated Phosphorylation of ERK, MKN1. The essentials:
as §1

A further assay deals with T1, KRas^G12D (Homo sapiens, UniProt P01116, G12D).
T1 construct: […]; biotin (biotinylated); purchased Accelegan Inc
T1 sequence (P01116 1-169 isoform P01116-2 G12D): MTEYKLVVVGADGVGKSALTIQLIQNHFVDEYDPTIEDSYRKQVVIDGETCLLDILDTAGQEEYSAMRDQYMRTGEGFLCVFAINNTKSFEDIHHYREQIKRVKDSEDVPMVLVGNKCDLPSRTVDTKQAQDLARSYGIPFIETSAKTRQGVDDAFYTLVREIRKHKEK
The assay is described as follows: KRas binding assay (TR-FRET displacement of Cy5 labelled tracer).

The next assay concerns the target T2, KRas^G12V (Homo sapiens, UniProt P01116, G12V).
T2 construct: […]; biotin (biotinylated); purchased Accelegan Inc
The assay is described as above.

For assay [1], the system named is NCI-H460 (Q61H) cells, phospho-ERK. Put plainly: Inhibition of KRas-mediated phosphorylation of ERK (phospho-ERK/GAPDH antibody detection, LI-COR). Conditions: Homo sapiens, 3 hours. The assay is classed as cell-based. The protocol:
(§2) AsPC-1 (G12D, ATCC CRL-1682), A549 (G12S, ATCC CCL-185), HCT116 (G13D, ATCC CCL-247) cells were grown in DMEM medium supplemented with 10% fetal bovine serum and Penicillin/Streptomycin. NCI-H358 (G12C, ATCC CRL-5807), NCI-H460 (Q61H, ATCC HTB-117), NCI-H727 (G12V, ATCC CRL-5815), MKN1 (WTdep, JCRB JCRB0252), PSN-1 (G12R, ATCC CRM-CRL-3211) cells were grown in RPMI medium supplemented with 10% fetal bovine serum, 10 mM HEPES, 10 mM Sodium Pyruvate, and Penicillin/Streptomycin. Cells were plated in black well clear bottom tissue culture treated 96 well plates (Corning, 3904) at a density of 20,000 cells/well and allowed to attach for 12-14 hours. Diluted compounds were then added in a final concentration of 0.5% DMSO. After 3 hours, 50 μL of 4.0% formaldehyde was added and the plates incubated at room temperature for 20 minutes. The plates were then dumped and permeabilized with 150 μL of ice cold 100% methanol for 10 minutes. Non-specific antibody binding to the plates was blocked using 100 μL Odyssey blocking buffer (LI-COR Biosciences, 927-60010) for 1 hour at room temperature.
(§3) The amount of phospho-ERK was determined using an antibody specific for the phosphorylated form of ERK and compared to the amount of GAPDH. Primary antibodies used for the detection were added as follows: Phospho-ERK (Cell Signaling CS-9101) diluted 1:500 and GAPDH (Millipore MAB374) diluted 1:5000 in Odyssey blocking buffer+0.05% Tween 20. The plates were incubated overnight at 4 C. The plates were washed 3× with 150 uL PBS+0.1% Tween 20.
(§4) Secondary antibodies used to visualize primary antibodies were added as follows: Goat Anti-Rabbit-800 (LI-COR, 926-32211) and Goat Anti-Mouse-680 (LI-COR, 926-68070) diluted 1:800 both in Odyssey blocking buffer+0.05% Tween 20 and were incubated for 1 hour at room temperature. The plates were washed 3× with 150 uL PBS+[…]. Plates were imaged dry on a Li—COR Odyssey CLX plate reader.
(§5) The phospho-ERK (Thr202/Tyr204) signal was normalized to the GAPDH signal for each well and percent of DMSO control values were calculated. IC50 values were generated using a 4-parameter fit of the dose response curve.

In assay [2] the test system is AsPC-1 (G12D) cells, phospho-ERK. The description is as above. Format: cell-based. Conditions: Homo sapiens, ASPC1, 3 hours. Here is the method:
as §2, §3, §4, §5

Assay [3] deals with NCI-H727 (G12V) cells, phospho-ERK. The description is as above. The assay is classed as cell-based. Conditions: Homo sapiens, 3 hours. Here is the method:
as §2, §3, §4, §5

Another assay deals with T3, KRas^G12R (Homo sapiens, UniProt P01116, G12R).
T3 construct: […]; biotin (biotinylated); purchased Accelegan Inc
T3 sequence (P01116 1-169 isoform P01116-2 G12R): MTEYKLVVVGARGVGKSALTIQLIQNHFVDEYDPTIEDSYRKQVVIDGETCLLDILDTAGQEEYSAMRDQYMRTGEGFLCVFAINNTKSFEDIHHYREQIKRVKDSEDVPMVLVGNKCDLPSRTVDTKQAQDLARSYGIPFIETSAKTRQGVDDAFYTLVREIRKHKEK
The assay is described as follows: KRas binding assay (TR-FRET displacement of Cy5 labelled tracer).

T2 sequence (P01116 1-169 isoform P01116-2 G12V): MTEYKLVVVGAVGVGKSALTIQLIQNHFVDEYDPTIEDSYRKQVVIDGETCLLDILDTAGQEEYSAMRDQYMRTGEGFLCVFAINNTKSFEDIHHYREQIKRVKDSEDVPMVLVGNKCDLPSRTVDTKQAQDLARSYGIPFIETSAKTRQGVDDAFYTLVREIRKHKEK
Experimental for KRas^G12D: (§6) The ability of a compound to bind to KRas was measured using a TR-FRET displacement assay. […] After a 60-minute incubation at room temperature, the reaction was measured using a BMG LABTECH CLARIO star Plus via TR-FRET. […] The POC values were fit to a 4-parameter IC50 equation and the IC50 value reported.
Experimental for KRas^G12R: as §6
Experimental for KRas^G12V: as §6

As for `CCc1c(F)ccc2cc(O)cc(N3CCc4c(nc(OC[C@@]56CCCN5C[C@H](F)C6)nc4N4CC5C(=O)NC(=O)C5C4)C3)c12` (stereo partly drawn) [Example 24, 5-(7-(8-ethyl-7-fluoro-3-hydroxynaphthalen-1-yl)-2-(((2R,7aS)-2-fluorohexahydro-1H-pyrrolizin-7a-yl)methoxy)-5,6,7,8-tetrahydropyrido[3,4-d]pyrimidin-4-yl)tetrahydropyrrolo[3,4-c]pyrrole-1,3(2H,3aH)-dione], the IC50 in the assay on A549 cells, pERK was 17 nM; in the assay with PSN1 cells, pERK, 2950 nM; in the assay with H460 cells, pERK, 59 nM; in the assay on HCT116 cells, pERK it was 148 nM; in the assay with ASPC1 cells, pERK, 10 nM; with H727 cells, pERK, 35 nM. Moreover, the IC50 in the assay on MKN1 cells, pERK is 6 nM; at KRas^G12D it was at most 2 nM; on KRas^G12V it was at most 2 nM; in [1], 65 nM; in [2] it was 25 nM; in assay [3], 134 nM. This compound also showed an IC50 on KRas^G12R of at most 2 nM.
Turning to `CCc1c(F)ccc2cc(O)cc(N3CCc4c(nc(OC[C@@H]5CCCN5C)nc4N4CCCn5nc(C(=O)N(C)C)cc5C4)C3)c12` [Example 198, 5-[7-(8-ethyl-7-fluoro-3-hydroxy-1-naphthyl)-2-[[(2S)-1-methylpyrrolidin-2-yl]methoxy]-6,8-dihydro-5H-pyrido[3,4-d]pyrimidin-4-yl]-N,N-dimethyl-4,6,7,8-tetrahydropyrazolo[1,5-a][1,4]diazepine-2-carboxamide], the IC50 with A549 cells, pERK is 671 nM; in the assay on PSN1 cells, pERK, at least 10000 nM; in the assay on H460 cells, pERK it was 1240 nM; in the assay with HCT116 cells, pERK, 1950 nM; in the assay with ASPC1 cells, pERK it was 185 nM; in the assay on H727 cells, pERK it was 344 nM. Besides, the IC50 is 185 nM in the assay on MKN1 cells, pERK; at most 2 nM at KRas^G12D; at most 2 nM at KRas^G12V; 5 nM at KRas^G12R.
In the case of `CCc1c(F)ccc2cc(O)cc(N3CCc4c(nc(OCC5(CN(C)C)CC5)nc4N4CCCn5nc(C(=O)N(C)C)cc5C4)C3)c12` [Example 203, 5-(2-((1-((dimethylamino)methyl)cyclopropyl)methoxy)-7-(8-ethyl-7-fluoro-3-hydroxynaphthalen-1-yl)-5,6,7,8-tetrahydropyrido[3,4-d]pyrimidin-4-yl)-N,N-dimethyl-5,6,7,8-tetrahydro-4H-pyrazolo[1,5-a][1,4]diazepine-2-carboxamide], the IC50 was 524 nM with A549 cells, pERK; at least 10000 nM in the assay on PSN1 cells, pERK; 1100 nM in the assay with H460 cells, pERK; 1700 nM in the assay on HCT116 cells, pERK; 132 nM in the assay with ASPC1 cells, pERK; 283 nM with H727 cells, pERK. Moreover, the IC50 in the assay on MKN1 cells, pERK was 181 nM; at KRas^G12D, at most 2 nM; on KRas^G12V, 52 nM; on KRas^G12R, 3 nM.
On to `O=C1NC(=O)C2(CCCN(c3nc(OC[C@@]45CCCN4C[C@H](F)C5)nc4c3CCN(c3cc(O)cc5ccc(F)c(Br)c35)C4)C2)N1` (stereo partly drawn) [Example 217, 7-(7-(8-bromo-7-fluoro-3-hydroxynaphthalen-1-yl)-2-(((2R,7aS)-2-fluorohexahydro-1H-pyrrolizin-7a-yl)methoxy)-5,6,7,8-tetrahydropyrido[3,4-d]pyrimidin-4-yl)-1,3,7-triazaspiro[4.5]decane-2,4-dione], for which the IC50 in the assay with A549 cells, pERK was found to be 160 nM; in the assay on PSN1 cells, pERK it was 269 nM; in the assay with H460 cells, pERK, 132 nM; in the assay on HCT116 cells, pERK it was 227 nM; with ASPC1 cells, pERK, 234 nM; in the assay on H727 cells, pERK, 390 nM. The IC50 in the assay on MKN1 cells, pERK was 21 nM; on KRas^G12D it was at most 2 nM; on KRas^G12V, at most 2 nM; at KRas^G12R, at most 2 nM.
Consider `O=C1NCC2(CCCN(c3nc(OC[C@@]45CCCN4C[C@H](F)C5)nc4c3CCN(c3cc(O)cc5ccc(F)c(Cl)c35)C4)C2)N1` (stereo partly drawn) [Example 228, 7-(7-(8-chloro-7-fluoro-3-hydroxynaphthalen-1-yl)-2-(((2R,7aS)-2-fluorohexahydro-1H-pyrrolizin-7a-yl)methoxy)-5,6,7,8-tetrahydropyrido[3,4-d]pyrimidin-4-yl)-1,3,7-triazaspiro[4.5]decan-2-one], for which the IC50 in the assay on A549 cells, pERK was 146 nM; in the assay on PSN1 cells, pERK, 696 nM; in the assay on H460 cells, pERK, 253 nM; with HCT116 cells, pERK it was 405 nM; with ASPC1 cells, pERK, 108 nM; in the assay on H727 cells, pERK it was 197 nM. The IC50 in the assay with MKN1 cells, pERK is 24 nM; at KRas^G12D, at most 2 nM; at KRas^G12V, at most 2 nM; on KRas^G12R, at most 2 nM.
Consider `CN(C)C(=O)c1cc2n(n1)CCCN(c1nc(OC[C@@]34CCCN3C[C@H](F)C4)nc3c1CCN(c1cc(O)cc4ccc(F)c(Cl)c14)C3)C2` [Example 229, 5-(7-(8-chloro-7-fluoro-3-hydroxynaphthalen-1-yl)-2-(((2R,7aS)-2-fluorohexahydro-1H-pyrrolizin-7a-yl)methoxy)-5,6,7,8-tetrahydropyrido[3,4-d]pyrimidin-4-yl)-N,N-dimethyl-5,6,7,8-tetrahydro-4H-pyrazolo[1,5-a][1,4]diazepine-2-carboxamide], for which the IC50 turned out to be 705 nM in the assay on A549 cells, pERK; 2140 nM in the assay on PSN1 cells, pERK; 1400 nM in the assay on H460 cells, pERK; 1980 nM in the assay with HCT116 cells, pERK; 220 nM in the assay on ASPC1 cells, pERK; 260 nM with H727 cells, pERK. The IC50 with MKN1 cells, pERK is 317 nM; at KRas^G12D, at most 2 nM; at KRas^G12V, at most 2 nM; on KRas^G12R, at most 2 nM.
In the case of `O=C1NC(=O)C2CN(c3nc(OC[C@@]45CCCN4C[C@H](F)C5)nc4c3CCN(c3cc(O)cc5ccc(F)c(Cl)c35)C4)CC12` (stereo partly drawn) [Example 232, 5-(7-(8-chloro-7-fluoro-3-hydroxynaphthalen-1-yl)-2-(((2R,7aS)-2-fluorohexahydro-1H-pyrrolizin-7a-yl)methoxy)-5,6,7,8-tetrahydropyrido[3,4-d]pyrimidin-4-yl)tetrahydropyrrolo[3,4-c]pyrrole-1,3(2H,3aH)-dione], the IC50 came out at 98 nM with A549 cells, pERK; 2770 nM with PSN1 cells, pERK; 331 nM with H460 cells, pERK; 709 nM in the assay with HCT116 cells, pERK; 125 nM with ASPC1 cells, pERK; 114 nM in the assay with H727 cells, pERK. Moreover, the concentration for half-maximal inhibition (IC50) is 34 nM in the assay on MKN1 cells, pERK; at most 2 nM on KRas^G12D; at most 2 nM at KRas^G12V; at most 2 nM on KRas^G12R.

(Values after patent US12421253B2 (Mirati Therapeutics, Inc., priority 2020, dated 2025).)
